Measured values taken from patent US20120220603A1, “SUBSTITUTED HETEROCYCLIC DERIVATIVES FOR THE TREATMENT OF PAIN AND EPILEPSY” (ZALICUS PHARMACEUTICALS LTD., priority 2009, published 2012).

Legend:
human Nav1.5 channel = target: T1, human Nav1.5 channel (Homo sapiens, UniProt Q14524); assay: NaV1.5 sodium channel screening assay, PatchXpress automated electrophysiology, cardiac action potential waveform 1 Hz; assay type: cell-based; details: cardiac action potential waveform at 1 Hz; HEK cells; read-out: HNAv 1.5 Cardiac AP 1 Hz IC50
T1 construct: expressed in transfected cells; host or cells: HEK cells
Description: Inhibition of the TTX-resistant NaV1.5 sodium channel, a key cardiac ion channel, can have profound effects on the duration and amplitude of the cardiac action potential and can result in arrhythmias and other heart malfunctions. To assess the potential cardiac liability of compounds at an early stage in the drug discovery process, a NaV1.5 sodium channel screening assay is performed on Molecular Device's PatchXpress™ automated electrophysiology platform. Under voltage-calmp conditions, NaV1.5 currents were recorded from HEK cells expressing the human Nav1.5 channel in the absence and presence of increasing concentrations of the test compound to obtain an IC50 value. The external recording solution contained (in mM): 90 TEACl, 50 NaCl, 1.8 CaCl, 1 MgCl2, 10 HEPES, 10 glucose, adjusted to pH 7.4 with TEA-OH and to 300 mOsm with sucrose (if necessary), while the internal patch pipette solution contained (in mM): 129 CsF, 2 MgCl2, 11 EGTA, 10 HEPES, 3 Na2ATP adjusted to pH 7.2 with CsOH and to 290 mOsm with sucrose (if necessary). NaV1.5 channel currents were evoked using a cardiac action potential waveform at 1 Hz, digitized at 31.25 kHz and low-pass filtered at 12 kHz.

[1] = Rat Early Pharmacokinetic (EPK) study; assay type: in vivo; details: PO, 3 mg/kg, formulation PG (propylene glycol)
Description: Male Sprague-Dawley rats were dosed via oral (PO) gavage in the detailed formulation. Blood samples were collected from the animals at 6 timepoints out to 4 hours post-dose. Pharmacokinetic analysis was performed on the LC-MS/MS measured concentrations for each timepoint of each compound.

mice on rotarod = assay: Mouse rotarod assay (minimal muscular or neurological impairment); assay type: in vivo
Description: To assess a compound's undesirable side effects (toxicity), animals were monitored for overt signs of impaired neurological or muscular function. In mice, the rotarod procedure (Dunham and Miya, J. Am. Pharmacol. Assoc. 46:208-209 (1957)) is used to disclose minimal muscular or neurological impairment (MMI). When a mouse is placed on a rod that rotates at a speed of 6 rpm, the animal can maintain its equilibrium for long periods of time. The animal is considered toxic if it falls off this rotating rod three times during a 1-min period.

[2] = test system: Lamina I/II spinal cord neurons; assay: Lamina assay: current-clamp recordings on lamina I/II spinal cord neurons; assay type: cell-based, rat; details: Lamina I and II, tonic firing neurons, current-clamp
From the text: Male Wistar rats (P6 to P9 for voltage-clamp and P15 to P18 for current-clamp recordings) were anaesthetized through intraperitoneal injection of Inactin (Sigma). The spinal cord was then rapidly dissected out and placed in an ice-cold solution protective sucrose solution containing (in mM): 50 sucrose, 92 NaCl, 15 D-Glucose, 26 NaHCO3, 5 KCl, 1.25 NaH2PO4, 0.5 CaCl2, 7 MgSO4, 1 kynurenic acid, and bubbled with 5% CO2/95% O2. The meninges, dura, and dorsal and ventral roots were then removed from the lumbar region of the spinal cord under a dissecting microscope. The “cleaned” lumbar region of the spinal cord was glued to the vibratome stage and immediately immersed in ice cold, bubbled, sucrose solution. For current-clamp recordings, 300 to 350 μm parasagittal slices were cut to preserve the dendritic arbour of lamina I neurons, while 350 to 400 μm transverse slices were prepared for voltage-clamped […] channel recordings. Slices were allowed to recover for 1 hour at 35° C. in Ringer solution containing (in mM): 125 NaCl, 20 D-Glucose, 26 NaHCO3, 3 KCl, 1.25 NaH2PO4, 2 CaCl2, 1 MgCl2, 1 kynurenic acid, 0.1 picrotoxin, bubbled with 5% CO2/95% O2. The slice recovery chamber was then returned to room temperature (20 to 22° C.) and all recordings were performed at this temperature.
Neurons were visualized using IR-DIC optics (Zeiss Axioskop 2 FS plus, Gottingen, Germany), and neurons from lamina I and the outer layer of lamina II were selected based on their location relative to the substantia gelatinosa layer. Neurons were patch-clamped using borosilicate glass patch pipettes with resistances of 3 to 6 MΩ. Current-clamp recordings of lamina I/II neurons in the intact slice, the external recording solution was the above Ringer solution, while the internal patch pipette solution contained (in mM): 140 KGluconate, 4 NaCl, 10 HEPES, 1 EGTA, 0.5 MgCl2, 4 MgATP, 0.5 Na2GTP, adjusted to pH 7.2 with 5 M KOH and to 290 mOsm with D-Mannitol (if necessary). Only tonic firing neurons were selected for current-clamp experiments, while phasic, delayed onset and single spike neurons were discarded (22). Recordings were digitized at 50 kHz and low-pass filtered at 2.4 kHz.

[3] = test system: seizures induced by 6 Hz corneal stimulation in CF1 mice; assay: 6 Hz psychomotor seizure model of partial epilepsy; assay type: in vivo, mouse; parameters: Epilepsy 6 Hz (% protected): concentration or dose not given beside the values; details: 32 mA
Description: Compounds were evaluated for the protection against seizures induced by a 6 Hz, 0.2 ms rectangular pulse width of 3 s duration, at a stimulus intensity of 32 mA (CC97) applied to the cornea of male CF1 mice (20-30 g) according to procedures described by Barton et al, “Pharmacological Characterization of the 6 Hz Psychomotor Seizure Model of Partial Epilepsy,” Epilepsy Res. 47(3):217-27 (2001). Seizures are characterised by the expression of one or more of the following behaviours: stun, forelimb clonus, twitching of the vibrissae and Straub-tail immediately following electrical stimulation.

[4] = test system: Rat SNL tactile allodynia; assay: L5/L6 spinal nerve ligation (SNL) Chung pain model, tactile allodynia (von Frey); assay type: in vivo
From the text: The Spinal Nerve Ligation is an animal model representing peripheral nerve injury generating a neuropathic pain syndrome. In this model experimental animals develop the clinical symptoms of tactile allodynia and hyperalgesia. L5/L6 Spinal nerve ligation (SNL) injury was induced using the procedure of Kim and Chung (Kim et al., Pain 50:355-363 (1992)) in male Sprague-Dawley rats (Harlan; Indianapolis, Ind.) weighing 200 to 250 grams.
Anaesthesia was induced with 2% isofluorane in O2 at 2 L/min and maintained with 0.5% isofluorane in O2. Rats were then shaved and aseptically prepared for surgeries. A 2 cm paraspinal incision was made at the level of L4-S2. L4/L5 was exposed by removing the transverse process above the nerves with a small rongeur. The L5 spinal nerve is the larger of the two visible nerves below the transverse process and lies closest to the spine. The L6 spinal nerve is located beneath the corner of the slope bone. A home-made glass Chung rod was used to hook L5 or L6 and a pre-made slip knot of 4.0 silk suture was placed on the tip of the rod just above the nerve and pulled underneath to allow for the tight ligation. The L5 and L6 spinal nerves were tightly ligated distal to the dorsal root ganglion. The incision was closed, and the animals were allowed to recover for 5 days.
Sham control rats underwent the same operation and handling as the experimental animals, but without SNL.
Prior to initiating drug delivery, baseline behavioural testing data is obtained. At selected times after infusion of the Test or Control Article behavioural data can then be collected again.
The assessment of tactile allodynia consisted of measuring the withdrawal threshold of the paw ipsilateral to the site of nerve injury in response to probing with a series of calibrated von Frey filaments (innocuous stimuli). Animals were acclimated to the suspended wire-mesh cages for 30 min before testing. Each von Frey filament was applied perpendicularly to the plantar surface of the ligated paw of rats for 5 sec. A positive response was indicated by a sharp withdrawal of the paw. For rats, the first testing filament is 4.31. Measurements were taken before and after administration of test articles. […] The protocol was repeated until three changes in behaviour were determined (“up and down” method) (Chaplan et al., J. Neurosci. Methods 53:55-63 (1994)). The 50% paw withdrawal threshold was determined as (10^[Xf+kδ])/10,000, where Xf=the value of the last von Frey filament employed, k=Dixon value for the positive/negative pattern, and S=the logarithmic difference between stimuli. The cut-off values for rats were no less than 0.2 g and no higher than 15 g (5.18 filament); for mice no less than 0.03 g and no higher than 2.34 g (4.56 filament). A significant drop of the paw withdrawal threshold compared to the pre-treatment baseline is considered tactile allodynia. […]

T1 sequence (Q14524 whole entry): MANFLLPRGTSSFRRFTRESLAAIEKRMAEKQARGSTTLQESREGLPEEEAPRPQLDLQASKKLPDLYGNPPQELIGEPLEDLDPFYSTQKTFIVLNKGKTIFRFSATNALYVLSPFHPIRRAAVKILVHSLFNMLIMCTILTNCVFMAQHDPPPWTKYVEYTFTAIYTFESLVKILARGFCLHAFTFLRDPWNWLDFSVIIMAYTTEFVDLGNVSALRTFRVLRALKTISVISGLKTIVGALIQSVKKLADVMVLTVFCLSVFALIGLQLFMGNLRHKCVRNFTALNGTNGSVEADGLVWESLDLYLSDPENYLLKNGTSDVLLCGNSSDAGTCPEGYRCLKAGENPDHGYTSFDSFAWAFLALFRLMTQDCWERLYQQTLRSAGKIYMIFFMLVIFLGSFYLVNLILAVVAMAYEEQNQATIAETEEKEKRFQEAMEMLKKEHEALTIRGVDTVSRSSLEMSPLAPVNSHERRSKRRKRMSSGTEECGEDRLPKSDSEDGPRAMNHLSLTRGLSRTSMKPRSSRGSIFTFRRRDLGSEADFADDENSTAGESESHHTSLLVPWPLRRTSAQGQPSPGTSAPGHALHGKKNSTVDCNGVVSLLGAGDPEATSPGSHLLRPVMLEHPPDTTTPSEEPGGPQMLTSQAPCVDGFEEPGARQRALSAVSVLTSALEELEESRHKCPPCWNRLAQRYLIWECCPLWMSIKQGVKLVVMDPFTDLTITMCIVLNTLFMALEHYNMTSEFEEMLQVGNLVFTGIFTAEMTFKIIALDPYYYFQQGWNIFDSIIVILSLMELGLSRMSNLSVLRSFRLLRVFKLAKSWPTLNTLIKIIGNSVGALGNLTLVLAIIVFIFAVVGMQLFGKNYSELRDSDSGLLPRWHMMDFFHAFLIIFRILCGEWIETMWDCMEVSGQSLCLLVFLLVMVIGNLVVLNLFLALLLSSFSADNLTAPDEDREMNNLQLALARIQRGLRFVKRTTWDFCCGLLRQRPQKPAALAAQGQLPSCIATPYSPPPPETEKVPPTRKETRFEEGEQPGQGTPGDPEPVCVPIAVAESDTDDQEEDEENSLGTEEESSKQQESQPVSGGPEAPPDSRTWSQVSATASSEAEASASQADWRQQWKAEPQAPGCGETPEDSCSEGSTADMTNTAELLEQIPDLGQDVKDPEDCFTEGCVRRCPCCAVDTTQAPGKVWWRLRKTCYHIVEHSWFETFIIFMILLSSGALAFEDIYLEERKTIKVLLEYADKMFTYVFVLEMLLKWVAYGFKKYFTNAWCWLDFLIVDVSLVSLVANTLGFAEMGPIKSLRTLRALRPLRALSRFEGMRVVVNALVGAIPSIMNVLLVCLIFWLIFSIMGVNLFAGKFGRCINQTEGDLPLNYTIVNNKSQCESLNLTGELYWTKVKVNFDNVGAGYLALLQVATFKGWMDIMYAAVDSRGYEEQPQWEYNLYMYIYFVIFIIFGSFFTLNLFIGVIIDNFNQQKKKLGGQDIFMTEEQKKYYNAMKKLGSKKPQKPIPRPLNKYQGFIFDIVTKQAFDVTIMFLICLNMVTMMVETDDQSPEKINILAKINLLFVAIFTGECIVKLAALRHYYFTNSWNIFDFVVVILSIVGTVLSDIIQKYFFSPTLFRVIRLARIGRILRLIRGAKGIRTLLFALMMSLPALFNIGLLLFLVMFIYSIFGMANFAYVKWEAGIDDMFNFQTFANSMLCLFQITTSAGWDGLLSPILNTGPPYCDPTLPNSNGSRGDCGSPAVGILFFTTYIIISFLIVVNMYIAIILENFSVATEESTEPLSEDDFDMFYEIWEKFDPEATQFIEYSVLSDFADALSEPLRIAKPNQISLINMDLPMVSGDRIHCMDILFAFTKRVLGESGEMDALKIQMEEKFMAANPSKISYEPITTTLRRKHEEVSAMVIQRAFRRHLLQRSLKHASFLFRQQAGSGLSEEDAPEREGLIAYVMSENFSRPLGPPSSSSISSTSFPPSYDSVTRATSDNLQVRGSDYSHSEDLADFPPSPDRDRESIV

Row | Structure (SMILES) | IC50 (human Nav1.5 channel) | Dose Normalized AUC [1] | Dose Normalized Cmax [1] | Tmax ([1]; male, Sprague-Dawley, blood) | % Impaired (mice on rotarod; 0.25 hr) | % Impaired (mice on rotarod; 0.5 hr) | % Impaired (mice on rotarod; 1 hr) | % Impaired (mice on rotarod; 2 hr) | % Impaired (mice on rotarod; 4 hr) | % Spike Change (Mean; % change from control) [2] | Epilepsy 6 Hz (% protected) ([3]; 0.25 hr) | Epilepsy 6 Hz (% protected) ([3]; 0.5 hr) | Epilepsy 6 Hz (% protected) ([3]; 1 hr) | Epilepsy 6 Hz (% protected) ([3]; 2 hr) | Epilepsy 6 Hz (% protected) ([3]; 4 hr) | Rat SNL Tactile Allodynia (% Antiallodynia) ([4]; 1 hour) | Rat SNL Tactile Allodynia (% Antiallodynia) ([4]; 2 hours) | Rat SNL Tactile Allodynia (% Antiallodynia) ([4]; 4 hours)
1 | O=C(CN1CCNCC1)Nc1cc(C(F)(F)F)cc(C(F)(F)F)c1 [Compound 5, N-(3,5-bis(trifluoromethyl)phenyl)-2-(piperazin-1-yl)acetamide] | 40 µM | 108 nM·h | 48 nM | 1.8 h |  |  |  |  |  |  |  |  |  |  |  |  |  | 
2 | O=C(CC1CCNCC1)Nc1cc(C(F)(F)F)cc(C(F)(F)F)c1 [Compound 19, N-(3,5-bis(trifluoromethyl)phenyl)-2-(piperidin-4-yl)acetamide] |  |  |  |  | 0% | 75% | 100% | 100% | 100% | −30.3% | 100% | 100% | 100% | 100% | 0% | 47% | 39% | 32%
